Experimental data published in US8455475B2 (Gruenenthal GmbH, priority 2009, dated 2013).

Legend:
[1] = molecular target: T1, human B1R (bradykinin receptor 1) (Homo sapiens, UniProt P46663); assay: FLIPR Ca2+ assay (Fluo-4) on CHO K1 cells stably transfected with the human B1R gene (hB1R cells): % inhibition at 10 μM / IC50, agonist Lys-Des-Arg9-bradykinin; type: cell-based; settings: CHO-K1, human B1R
T1 construct: expressed in transfected cells; host or cells: CHO K1 cells
T1 sequence (P46663 1-353): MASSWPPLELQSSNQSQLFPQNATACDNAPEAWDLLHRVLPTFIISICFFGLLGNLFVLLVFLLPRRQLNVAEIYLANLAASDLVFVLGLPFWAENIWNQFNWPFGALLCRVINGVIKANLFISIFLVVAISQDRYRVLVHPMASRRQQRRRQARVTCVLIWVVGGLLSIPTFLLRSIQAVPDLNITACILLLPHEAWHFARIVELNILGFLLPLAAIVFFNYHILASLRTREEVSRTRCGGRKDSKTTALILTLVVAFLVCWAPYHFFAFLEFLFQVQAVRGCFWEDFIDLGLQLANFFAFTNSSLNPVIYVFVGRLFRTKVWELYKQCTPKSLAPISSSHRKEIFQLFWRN
How it was run: (§1)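 Antagonism is measured as the drop in peak Fluo-4 Ca2+ signal when the EC80 agonist follows 10–20 min compound exposure. The single-point screen uses 10 μM; IC50 uses several concentrations. Values are given as % of maximal achievable inhibition.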

[2] = molecular target: T2, rat B1R (bradykinin receptor 1) (Rattus norvegicus, UniProt P97583); assay: FLIPR Ca2+ assay (Fluo-4) on CHO K1 cells stably transfected with the B1R gene of the rat (rB1R cells): % inhibition at 10 μM / IC50, agonist Des-Arg9-bradykinin; type: cell-based; settings: CHO-K1, rat B1R
T2 construct: expressed in transfected cells; host or cells: CHO K1 cells
T2 sequence (P97583 1-337): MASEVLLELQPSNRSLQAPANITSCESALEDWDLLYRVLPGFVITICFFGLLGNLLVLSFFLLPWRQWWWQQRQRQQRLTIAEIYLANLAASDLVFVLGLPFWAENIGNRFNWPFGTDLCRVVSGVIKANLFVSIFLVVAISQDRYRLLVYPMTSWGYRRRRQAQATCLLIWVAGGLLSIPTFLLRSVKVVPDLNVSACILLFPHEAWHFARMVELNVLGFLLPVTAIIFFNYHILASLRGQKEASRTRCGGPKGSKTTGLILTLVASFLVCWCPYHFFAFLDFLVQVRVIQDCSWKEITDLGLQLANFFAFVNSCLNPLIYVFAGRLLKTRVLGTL
How it was run: as §1

| Structure (SMILES) | inhibition at 10 µM [1] | inhibition at 10 µM [2] |
| --- | --- | --- |
| O=C(NC1CCc2ccc(C(=O)N3CCC4(CC3)CCN(c3ccncc3)C4)cc21)c1cc(F)ccc1Cl (centres unmarked) [IND_CC-221, 2-Chloro-5-fluoro-N-[6-(2-pyridin-4-yl-2,8-diazaspiro[4.5]decane-8-carbonyl)-2,3-dihydro-1H-inden-1-yl]-benzamide] | 100% | 104% |
| CC1(C)Cc2ccc(C(=O)N3CCC4(CC3)CCN(c3ccncc3)CC4)cc2C1NC(=O)c1cc(F)ccc1Cl (centres unmarked) [IND_CC-223, 2-Chloro-N-[2,2-dimethyl-6-(9-pyridin-4-yl-3,9-diazaspiro[5.5]undecane-3-carbonyl)-1,3-dihydro-inden-1-yl]-5-fluoro-benzamide] | 97% | 105% |
| CN(C(=O)c1cc(F)c(F)cc1Cl)C1CCc2ccc(C(=O)N3CCC4(CC3)CCN(c3ccncc3)CC4)cc21 (centres unmarked) [IND_CC-224, 2-Chloro-4,5-difluoro-N-methyl-N-[6-(9-pyridin-4-yl-3,9-diazaspiro[5.5]undecane-3-carbonyl)-2,3-dihydro-1H-inden-1-yl]-benzamide] | 100% | 103% |
| CN(C(=O)c1cccc(C(F)(F)F)c1Cl)C1CCc2ccc(C(=O)N3CCC4(CC3)CCN(c3ccncc3)CC4)cc21 (centres unmarked) [IND_CC-225, 2-Chloro-N-methyl-N-[6-(9-pyridin-4-yl-3,9-diazaspiro[5.5]undecane-3-carbonyl)-2,3-dihydro-1H-inden-1-yl]-3-(trifluoromethyl)-benzamide] | 71% | 103% |
| CN(C1CCc2ccc(C(=O)N3CCC4(CC3)CCN(c3ccncc3)CC4)cc21)S(=O)(=O)Cc1ccccc1C(F)(F)F (centres unmarked) [IND_CC-226, N-Methyl-N-[6-(9-pyridin-4-yl-3,9-diazaspiro[5.5]undecane-3-carbonyl)-2,3-dihydro-1H-inden-1-yl]-1-[2-(trifluoromethyl)-phenyl]-methanesulfonic acid amide] | 98% | 101% |
| O=C(NC1CCc2ccc(C(=O)N3CCC4(CC3)CCN(c3ccncc3)CC4)cc21)c1cc(F)c(F)cc1Cl (centres unmarked) [IND_CC-228, 2-Chloro-4,5-difluoro-N-[6-(9-pyridin-4-yl-3,9-diazaspiro[5.5]undecane-3-carbonyl)-2,3-dihydro-1H-inden-1-yl]-benzamide] | 100% | 104% |
| O=C(NC1CCc2ccc(C(=O)N3CCC4(CC3)CCN(c3ccncc3)C4)cc21)c1cc(F)c(F)cc1Cl (centres unmarked) [IND_CC-229, 2-Chloro-4,5-difluoro-N-[6-(2-pyridin-4-yl-2,8-diazaspiro[4.5]decane-8-carbonyl)-2,3-dihydro-1H-inden-1-yl]-benzamide] | 100% | 102% |
| CC1(C)Cc2ccc(C(=O)N3CCC4(CC3)CCN(c3ccncc3)CC4)cc2C1NC(=O)c1cc(F)c(F)cc1Cl (centres unmarked) [IND_CC-231, 2-Chloro-N-[2,2-dimethyl-6-(9-pyridin-4-yl-3,9-diazaspiro[5.5]undecane-3-carbonyl)-1,3-dihydro-inden-1-yl]-4,5-difluoro-benzamide] | 100% | 102% |
| O=C(NC1CCc2ccc(C(=O)N3CCC4(CC3)CCN(c3ccncc3)CC4)cc21)c1cccc(C(F)(F)F)c1Cl (centres unmarked) [IND_CC-232, 2-Chloro-N-[6-(9-pyridin-4-yl-3,9-diazaspiro[5.5]undecane-3-carbonyl)-2,3-dihydro-1H-inden-1-yl]-3-(trifluoromethyl)-benzamide] | 96% | 101% |
| O=C(NC1CCc2ccc(C(=O)N3CCC4(CC3)CCN(c3ccncc3)C4)cc21)c1cccc(C(F)(F)F)c1Cl (centres unmarked) [IND_CC-233, 2-Chloro-N-[6-(2-pyridin-4-yl-2,8-diazaspiro[4.5]decane-8-carbonyl)-2,3-dihydro-1H-inden-1-yl]-3-(trifluoromethyl)-benzamide] | 86% | 98% |
| O=C(c1ccc2c(c1)C(NS(=O)(=O)Cc1ccccc1C(F)(F)F)CC2)N1CCC2(CC1)CCN(c1ccncc1)CC2 (centres unmarked) [IND_CC-236, N-[6-(9-Pyridin-4-yl-3,9-diazaspiro[5.5]undecane-3-carbonyl)-2,3-dihydro-1H-inden-1-yl]-1-[2-(trifluoromethyl)-phenyl]-methanesulfonic acid amide] | 98% | 96% |
| O=C(c1ccc2c(c1)C(NS(=O)(=O)Cc1ccccc1C(F)(F)F)CC2)N1CCC2(CC1)CCN(c1ccncc1)C2 (centres unmarked) [IND_CC-237, N-[6-(2-Pyridin-4-yl-2,8-diazaspiro[4.5]decane-8-carbonyl)-2,3-dihydro-1H-inden-1-yl]-1-[2-(trifluoromethyl)-phenyl]-methanesulfonic acid amide] | 100% | 98% |
| CC1(C)Cc2ccc(C(=O)N3CCC4(CC3)CCN(c3ccncc3)CC4)cc2C1NS(=O)(=O)Cc1ccccc1C(F)(F)F (centres unmarked) [IND_CC-238, N-[2,2-Dimethyl-6-(9-pyridin-4-yl-3,9-diazaspiro[5.5]undecane-3-carbonyl)-1,3-dihydro-inden-1-yl]-1-[2-(trifluoromethyl)-phenyl]-methanesulfonic acid amide] | 99% | 100% |
| Cc1cccc(Cl)c1S(=O)(=O)NC1c2cc(C(=O)N3CCC4(CC3)CCN(c3ccncc3)CC4)ccc2CC1(C)C (centres unmarked) [IND_CC-240, 2-Chloro-N-[2,2-dimethyl-6-(9-pyridin-4-yl-3,9-diazaspiro[5.5]undecane-3-carbonyl)-1,3-dihydro-inden-1-yl]-6-methyl-benzenesulfonic acid amide] | 95% | 99% |
| O=C(c1ccc2c(c1)C(NS(=O)(=O)CCc1ccccc1Cl)CC2)N1CCC2(CC1)CCN(c1ccncc1)CC2 (centres unmarked) [IND_CC-241, 2-(2-Chlorophenyl)-N-[6-(9-pyridin-4-yl-3,9-diazaspiro[5.5]undecane-3-carbonyl)-2,3-dihydro-1H-inden-1-yl]-ethanesulfonic acid amide] | 95% | 101% |
| CC1(C)Cc2ccc(C(=O)N3CCC4(CC3)CCN(c3ccncc3)CC4)cc2C1NS(=O)(=O)CCc1ccccc1Cl (centres unmarked) [IND_CC-242, 2-(2-Chlorophenyl)-N-[2,2-dimethyl-6-(9-pyridin-4-yl-3,9-diazaspiro[5.5]-undecane-3-carbonyl)-1,3-dihydro-inden-1-yl]-ethanesulfonic acid amide] | 94% | 101% |
| CC1(C)CC(NC(=O)c2c(Cl)cccc2C(F)(F)F)c2cc(C(=O)N3CCC4(CC3)CCN(c3ccncc3)CC4)ccc21 (centres unmarked) [IND_CC-243, 2-Chloro-N-[3,3-dimethyl-6-(3-pyridin-4-yl-3,9-diazaspiro[5.5]undecane-9-carbonyl)-1,2-dihydro-inden-1-yl]-6-(trifluoromethyl)-benzamide] | 100% | 99% |
| CC1(C)CC(NC(=O)c2cc(Cl)ccc2Cl)c2cc(C(=O)N3CCC4(CC3)CCN(c3ccncc3)CC4)ccc21 (centres unmarked) [IND_CC-244, 2,5-Dichloro-N-[3,3-dimethyl-6-(3-pyridin-4-yl-3,9-diazaspiro[5.5]undecane-9-carbonyl)-1,2-dihydro-inden-1-yl]-benzamide] | 99% | 103% |
| O=C(NC1CCc2ccc(C(=O)N3CCC4(CCN(c5ccncc5)CC4)C3)cc21)c1cc(Cl)ccc1Cl (centres unmarked) [IND_CC-245, 2,5-Dichloro-N-[6-(8-pyridin-4-yl-2,8-diazaspiro[4.5]decane-2-carbonyl)-2,3-dihydro-1H-inden-1-yl]-benzamide] | 100% | 101% |
| COc1ccc(C(=O)NC2CC(C)(C)c3ccc(C(=O)N4CCC5(CC4)CCN(c4ccncc4)CC5)cc32)c(Cl)c1 (centres unmarked) [IND_CC-246, 2-Chloro-N-[3,3-dimethyl-6-(3-pyridin-4-yl-3,9-diazaspiro[5.5]undecane-9-carbonyl)-1,2-dihydro-inden-1-yl]-4-methoxy-benzamide] | 99% | 100% |
| COc1ccc(C(=O)NC2CCc3ccc(C(=O)N4CCC5(CCN(c6ccncc6)CC5)C4)cc32)c(Cl)c1 (centres unmarked) [IND_CC-247, 2-Chloro-4-methoxy-N-[6-(8-pyridin-4-yl-2,8-diazaspiro[4.5]decane-2-carbonyl)-2,3-dihydro-1H-inden-1-yl]-benzamide] | 99% | 102% |
| Cc1ccc(F)c(C(=O)NC2CC(C)(C)c3ccc(C(=O)N4CCC5(CC4)CCN(c4ccncc4)CC5)cc32)c1Cl (centres unmarked) [IND_CC-248, 2-Chloro-N-[3,3-dimethyl-6-(3-pyridin-4-yl-3,9-diazaspiro[5.5]undecane-9-carbonyl)-1,2-dihydro-inden-1-yl]-6-fluoro-3-methyl-benzamide] | 90% | 102% |
